Tests used:
Type in all cases: in vivo
[1] = test system: fall armyworm larvae (Spodoptera frugiperda); experiment: Spodoptera frugiperda spray test; conditions: 168 h, application rate 100 g/ha, after 7 days, maize leaf sections
Experimental: Spodoptera frugiperda—Spray Test
(§1) To produce a suitable preparation of active compound, 1 part by weight of active compound is mixed with the stated amount of solvents and is diluted with water, containing an emulsifier concentration of 1000 ppm, to the desired concentration. Further test concentrations are prepared by dilution with emulsifier containing water.
Maize (Zea mays) leaf sections are sprayed with a preparation of the active ingredient of the desired concentration. Once dry, the leaf sections are infested with fall armyworm larvae (Spodoptera frugiperda).
After 7 days mortality in % is determined. 100% means all caterpillars have been killed and 0% means none of the caterpillars have been killed.

[2] = test system: adult brown dog ticks (Rhipicephalus sanguineus); experiment: Rhipicephalus sanguineus in-vitro contact test, adult brown dog ticks; conditions: application rate 5 μg/cm^2 (=500 g/ha), after 48 hours, read-out: activity (efficacy: ticks dead or moribund)
Experimental: Rhipicephalus sanguineus—In-Vitro Contact Tests with Adult Brown Dog Ticks
(§2) 9 mg compound is solved in 1 mL acetone and diluted with acetone to the desired concentration. 250 μL of the test solution is filled in 25 mL glass test tubes and homogeneously distributed on the inner walls by rotation and tilting on a shaking device (2 h at 30 rpm). With a compound concentration of 900 ppm, an inner surface of 44.7 cm^2 and a homogeneous distribution, a dose of 5 μg/cm^2 is achieved.
(§3) After the solvent has evaporated, each test tube is filled with 5-10 adult brown dog ticks (Rhipicephalus sanguineus), closed with a perforated lid and incubated in a lying position at room temperature and relative humidity. After 48 hours efficacy is determined. The ticks are patted on the ground of the tubes and are incubated on a heating plate at 45-50° C. for at most 5 minutes. Immotile or uncoordinated moving ticks, which are not able to escape the heat by climbing upwards, are marked as dead or moribund.
An efficacy of 100% means all ticks are dead or moribund; 0% means no ticks are dead or moribund.

[3] = test system: larvae of the banded cucumber beetle (Diabrotica balteata); experiment: Diabrotica balteata spray test; conditions: 168 h, application rate 100 g/ha (=32 μg/well), after 7 days, wheat seeds, read-out: activity (efficacy: seedlings grown)
Experimental: Diabrotica balteata—Spray Test
as §1, with “solvent,” for “solvents”, “and the concentrate” for “and”
Soaked wheat seeds (Triticum aestivum) are placed in a multiple well plate filled with agar and some water and are incubated for 1 day to germinate (5 seeds per well). The germinated wheat seeds are sprayed with a test solution containing the desired concentration of the active ingredient. Afterwards each unit is infected with 10-20 larvae of the banded cucumber beetle (Diabrotica balteata).
After 7 days efficacy in % is determined. 100% means all the seedlings have grown up like in the untreated, uninfected control; 0% means none of the seedlings have grown.

[4] = test system: Rhipicephalus (Boophilus) microplus larvae (strain Parkhurst, resistant against synthetic pyrethroids); experiment: Rhipicephalus (Boophilus) microplus in-vitro contact test, larval cattle tick; conditions: after 48 hours, read-out: activity (efficacy: larvae dead or moribund); for pest or weed control at 1 µg/cm2, 100 g/ha: application rate 1 μg/cm^2 (=100 g/ha); for pest or weed control at 5 µg/cm2, 500 g/ha: application rate 5 μg/cm^2 (=500 g/ha)
Experimental: Rhipicephalus (Boophilus) microplus—In-Vitro Contact Tests Larval Cattle Tick (Strain Parkhurst, Resistant Against Synthetic Pyrethroids)
as §2, with “1 ml” for “1 mL”
After the solvent has evaporated, each test tube is filled with 20-50 cattle tick larvae (Rhipicephalus microplus), closed with a perforated lid and incubated in a horizontal position at 85% relative humidity and 27° C. in an incubator. After 48 hours efficacy is determined. The larvae are patted on the ground of the tubes and negative geotactic behavior is recorded.
An efficacy of 100% means all larvae are dead or moribund; 0% means no larvae are dead or moribund.

[5] = test system: green peach aphid (Myzus persicae); experiment: Myzus persicae oral test; conditions: 120 h, read-out: activity (mortality)
Experimental: Solvent: 100 parts by weight acetone
To produce a suitable preparation of active compound, 1 part by weight of active compound is mixed with the stated amount of solvent, and the concentrate is diluted with water to the desired concentration.
50 μL compound solution is filled in microtiter plates and 150 μL IPL41 insect medium (33%+15% sugar) is added to obtain a total volume of 200 μL per well. Afterwards the plates are sealed with parafilm through which a mixed population of the green peach aphid (Myzus persicae) can suck on the compound preparation.
(§4) After 5 days mortality in % is determined. 100% means all aphids have been killed and 0% means none of the aphids have been killed.

[6] = test system: adult cat fleas (Ctenocephalides felis); experiment: Ctenocephalides felis in-vitro contact test, adult cat flea; conditions: application rate 5 μg/cm^2 (=500 g/ha), after 48 hours, read-out: activity (efficacy: fleas dead or moribund)
Experimental: Ctenocephalides felis—In-Vitro Contact Tests Adult Cat Flea
as §2
as §3, with “cat fleas (Ctenocephalides felis),” for “brown dog ticks (Rhipicephalus sanguineus),”, “fleas” for “ticks”, “fleas,” for “ticks,”
An efficacy of 100% means all fleas are dead or moribund; 0% means no fleas are dead or moribund.

[7] = test system: green peach aphid (Myzus persicae); experiment: Myzus persicae spray test; conditions: foliar, 120 h, after 5 days, Chinese cabbage leaf disks
Experimental: Myzus persicae—Spray Test
as §1
Chinese cabbage (Brassica pekinensis) leaf disks infected with all instars of the green peach aphid (Myzus persicae), are sprayed with a preparation of the active ingredient of the desired concentration.
as §4

Row | Structure (SMILES) | mortality at 100 g/ha [1] | pest or weed control at 5 µg/cm2, 500 g/ha [2] | pest or weed control at 32 µg/disc, 100 g/ha [3] | pest or weed control at 1 µg/cm2, 100 g/ha [4] | pest or weed control at 5 µg/cm2, 500 g/ha [4] | mortality at 4 ppm [5] | pest or weed control at 5 µg/cm2 [6] | mortality at 500 g/ha ([7]; application rate 500 g/ha) | mortality at 100 g/ha ([7]; application rate 100 g/ha, read-out: activity (mortality))
1 | CC(NC(=O)c1cc(C(F)(F)F)cc(C(F)(F)F)c1)c1nc(Br)nn1-c1ccc(C(=O)N2CCOCC2)cn1 (racemic) [Example I-86, N-[1-[5-bromo-2-[5-(morpholine-4-carbonyl)-2-pyridyl]-1,2,4-triazol-3-yl]ethyl]-3,5-bis(trifluoromethyl)benzamide] | 83% | 80% | 100% | 100% | 100% |  |  |  | 
2 | Cc1nc([C@H](C)NC(=O)c2cc(Cl)cc(C(F)(F)F)c2)n(-c2ccc(C(=O)N3CC(O)C3)cn2)n1 [Example I-21] |  |  |  |  |  | 100% |  |  | 
3 | C[C@H](NC(=O)c1cc(Cl)cc(C(F)(F)F)c1)c1ncnn1-c1ccc(N2CCOCC2)cn1 [Example I-43] |  | 100% | 100% | 100% | 100% |  |  |  | 
4 | C[C@@H]1CN(C(=O)c2ccc(-n3ncnc3[C@H](C)NC(=O)c3cc(Cl)cc(S(C)(=O)=O)c3)nc2)C[C@H](C)O1 [Example I-53] | 100% |  |  |  |  | 100% | 100% |  | 
5 | C[C@H](NC(=O)c1cc(Cl)cc(C(F)(F)F)c1)c1ncnn1-c1ccc(N2CCSCC2=O)cn1 [Example I-55] |  |  |  |  |  | 100% | 80% |  | 
6 | C[C@H](NC(=O)c1cc(Cl)cc(C(F)(F)F)c1)c1ncnn1-c1ccc(N2CCCCC2=O)cn1 [Example I-57] |  |  |  |  |  | 90% |  |  | 
7 | C[C@H](NC(=O)c1cc(OC(F)(F)F)cc(C2CC2)c1)c1ncnn1-c1ccc(N2CCOCC2=O)cn1 [Example I-58] |  |  |  |  |  |  |  | 90% | 
8 | C[C@H](NC(=O)c1cc(OC(F)(F)F)cc(C2CC2)c1)c1ncnn1-c1ccc(C(=O)N2CCOC[C@@H]2C)cn1 [Example I-66] | 83% |  | 100% | 100% | 100% |  | 100% |  | 
9 | C[C@H](NC(=O)c1cc(C(F)(F)F)cc(C(F)(F)F)c1)c1ncnn1-c1ccc(C(=O)N2CCOC[C@H]2C)cn1 [Example I-71] | 100% | 80% | 100% | 100% | 100% | 100% | 100% |  | 
10 | C[C@H](NC(=O)c1cc(Cl)cc(S(C)(=O)=O)c1)c1ncnn1-c1ccc(C(=O)N2CCS(=O)(=O)CC2)cn1 [Example I-96] |  |  |  |  |  | 100% |  |  | 
11 | CON(C)C(=O)c1cnc(-n2nc(C)nc2[C@H](C)NC(=O)c2cc(C(F)(F)F)cc(C(F)(F)F)c2)s1 [Example I-97] |  |  | 100% | 100% | 100% | 100% |  |  | 
12 | C[C@H](NC(=O)c1cc(C(F)(F)F)cc(C(F)(F)F)c1)c1ncnn1-c1ccc(C(=O)N2CCOCC2c2ccnn2C)cn1 (some centres unmarked) [Example I-100] | 83% |  | 100% | 90% | 90% |  | 80% |  | 
13 | Cc1nc([C@H](C)NC(=O)c2cc(C(F)(F)F)cc(C(F)(F)F)c2)n(-c2ccc(C(=O)N3CCOCC3c3ccnn3C)cn2)n1 (some centres unmarked) [Example I-101] | 100% |  |  | 80% | 80% |  | 80% |  | 
14 | C[C@H](NC(=O)c1cc(Cl)cc(S(=O)(=O)C(F)(F)F)c1)c1ncnn1-c1ccc(N2CCOCC2)cn1 [Example I-105] | 83% |  | 100% | 100% | 100% |  |  |  | 
15 | C[C@H](NC(=O)c1cc(C(F)(F)F)cc(C(F)(F)F)c1)c1ncnn1-c1ccc(C(=O)NC2CCOCC2)cn1 [Example I-111] |  |  |  | 100% | 100% | 90% |  |  | 
16 | C[C@H](NC(=O)c1cc(C(F)(F)F)cc(C(F)(F)F)c1)c1ncnn1-c1ccc(C(=O)NC2CCSCC2)cn1 [Example I-113] |  |  |  | 100% | 100% | 100% |  |  | 
17 | C[C@H](NC(=O)c1cc(Cl)cc(S(C)(=O)=O)c1)c1ncnn1-c1ccc(C(=O)N2CCOCC2)cn1 [Example I-119] |  |  |  |  |  | 100% |  |  | 
18 | C[C@H](NC(=O)c1cc(C(F)(F)F)cc(C(F)(F)F)c1)c1ncnn1-c1ccc(N2CCOCC2=O)cn1 [Example I-128, N-[(1S)-1-{1-[5-(3-oxomorpholin-4-yl)pyridin-2-yl]-1H-1,2,4-triazol-5-yl}ethyl]-3,5-bis(trifluoromethyl)benzamide] |  |  |  | 100% | 100% | 100% |  |  | 
19 | Cc1nc([C@H](C)NC(=O)c2cc(OC(F)(F)F)cc(C3CC3)c2)n(-c2ccc(C(=O)N3CCOC[C@@H]3C)cn2)n1 [Example I-129] |  |  |  | 100% | 100% |  | 100% |  | 
20 | Cc1nc([C@H](C)NC(=O)c2cc(Br)cc(OC(F)(F)F)c2)n(-c2ncc(C(=O)N3CCOCC3)s2)n1 [Example I-136] | 100% | 100% |  | 100% | 100% |  |  |  | 
21 | Cc1nc([C@H](C)NC(=O)c2cc(C(F)(F)F)cc(C(F)(F)F)c2)n(-c2ccc(C(=O)N3C[C@@H](C)O[C@@H](C)C3)nn2)n1 [Example I-139] |  | 100% | 100% | 100% | 100% |  |  |  | 
22 | C[C@@H]1CN(C(=O)c2cnc(-n3ncnc3[C@H](C)NC(=O)c3cc(OC(F)(F)F)cc(C4CC4)c3)nc2)C[C@H](C)O1 [Example I-148] | 100% |  | 100% |  |  |  |  |  | 90%
